Data as given in PubChem BioAssay (NCI).
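Growth conditions: 96-well plates. Treatment: test compound, 48 hours, 5 concentrations. Analysis: linear interpolation between bracketing concentrations; unreached endpoints set to highest concentration. Here, GI50 denotes the concentration required for 50% inhibition of growth. TGI is the concentration that stops growth completely.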

Tests used:
Experiment in all cases: inhibition of tumour cell growth, NCI panel, 48 h
A498 renal = tested on: A498 renal
SK-MEL-2 melanoma = tested on: SK-MEL-2 melanoma
RPMI-8226 leukemia = tested on: RPMI-8226 leukemia
COLO 205 colon = tested on: COLO 205 colon
NCI-H23 lung = tested on: NCI-H23 lung
SK-OV-3 ovarian = tested on: SK-OV-3 ovarian
KM12 colon = tested on: KM12 colon
OVCAR-3 ovarian = tested on: OVCAR-3 ovarian
UACC-62 melanoma = tested on: UACC-62 melanoma
HCT-15 colon = tested on: HCT-15 colon
ACHN renal = tested on: ACHN renal
OVCAR-4 ovarian = tested on: OVCAR-4 ovarian
U251 CNS = tested on: U251 CNS
SR leukemia = tested on: SR leukemia
HL-60(TB) leukemia = tested on: HL-60(TB) leukemia
SK-MEL-5 melanoma = tested on: SK-MEL-5 melanoma
HCC-2998 colon = tested on: HCC-2998 colon
NCI/ADR-RES ovarian = tested on: NCI/ADR-RES ovarian

Row | SMILES | TGI (A498 renal) | TGI (SK-MEL-2 melanoma) | TGI (RPMI-8226 leukemia) | TGI (COLO 205 colon) | TGI (NCI-H23 lung) | TGI (SK-OV-3 ovarian) | TGI (KM12 colon) | TGI (OVCAR-3 ovarian) | TGI (UACC-62 melanoma) | TGI (HCT-15 colon) | TGI (ACHN renal) | TGI (OVCAR-4 ovarian) | TGI (U251 CNS) | TGI (SR leukemia) | TGI (HL-60(TB) leukemia) | TGI (SK-MEL-5 melanoma) | TGI (HCC-2998 colon) | TGI (NCI/ADR-RES ovarian) | GI50 (OVCAR-3 ovarian)
1 | C/C(=N\NS(=O)(=O)c1ccc(C)cc1)C(CN1CCOCC1)C(c1ccccc1)c1c(O)c2ccccc2oc1=O (stereo not drawn) | > 100 µM | > 100 µM | > 100 µM | > 100 µM | > 100 µM | > 100 µM | > 100 µM | > 100 µM | > 100 µM | > 100 µM | > 100 µM | > 100 µM | > 100 µM | 56.2 µM | 76.1 µM | > 100 µM | – | – | –
2 | CNC(=O)CN(CC(=O)NC)C(=O)NC | > 100 µM | > 100 µM | > 100 µM | > 100 µM | > 100 µM | > 100 µM | > 100 µM | > 100 µM | > 100 µM | > 100 µM | > 100 µM | > 100 µM | > 100 µM | > 100 µM | > 100 µM | > 100 µM | > 100 µM | – | –
3 | C/C(CC(=O)Nc1ccc(Cl)c(Cl)c1)=N/NC(=O)C[n+]1ccccc1 | > 100 µM | > 100 µM | > 100 µM | > 100 µM | > 100 µM | > 100 µM | > 100 µM | > 100 µM | > 100 µM | > 100 µM | > 100 µM | > 100 µM | > 100 µM | 51.2 µM | > 100 µM | > 100 µM | > 100 µM | – | –
4 | COC(=O)/C=C/c1ccc2c(c1)CCC2 | > 100 µM | > 100 µM | > 100 µM | – | > 100 µM | > 100 µM | – | > 100 µM | – | > 100 µM | > 100 µM | > 100 µM | > 100 µM | 72.9 µM | 73.6 µM | > 100 µM | > 100 µM | > 100 µM | –
5 | C=CCCC(OCOCCOC)c1cc(C)c(O[Si](C)(C)C(C)(C)C)c(C)c1 (stereo not drawn) | 70.6 µM | 30.8 µM | 23.4 µM | 32.9 µM | 31.5 µM | 55.1 µM | 29.3 µM | 27.7 µM | 38.1 µM | 31.4 µM | 26.7 µM | – | 27.3 µM | – | 19.5 µM | 24.3 µM | 27.5 µM | – | –
6 | COc1ccc(N2C(=O)C3c4[nH]c5ccccc5c4C4CCCCCCCCCCC4C3C2=O)cc1 (stereo not drawn) | 25.5 µM | > 100 µM | 43.2 µM | > 40.5 µM | > 33.1 µM | > 57.5 µM | > 57.3 µM | 26.4 µM | > 52.6 µM | 19.9 µM | > 60.3 µM | 65.8 µM | 22.4 µM | > 20.3 µM | 68.2 µM | > 59.6 µM | > 100 µM | – | –
7 | CCN1CCC(O)(c2ccc(C)cc2)C(C(=O)c2ccc(C)cc2)C1 (stereo not drawn) | > 100 µM | > 100 µM | 41.5 µM | 48.8 µM | > 55.1 µM | > 100 µM | > 91.9 µM | 40.1 µM | > 60 µM | 36.5 µM | 32.1 µM | 50.1 µM | > 83.9 µM | 50.9 µM | 47.7 µM | > 57.2 µM | > 100 µM | – | –
8 | Cc1ccc(S(=O)(=O)N2CC3OC(C)(C)OC3C2CO)cc1 (stereo not drawn) | > 100 µM | > 100 µM | > 100 µM | > 100 µM | – | > 100 µM | > 100 µM | > 100 µM | – | > 100 µM | > 100 µM | > 100 µM | > 100 µM | > 100 µM | – | > 100 µM | > 100 µM | > 100 µM | –
9 | CCOC(=O)/C(=C\c1ccc(O)c(OC)c1)C(=O)c1ccccc1 | 39 µM | 34.8 µM | 42.1 µM | > 69.1 µM | 23.7 µM | > 61.4 µM | 34.3 µM | 54.3 µM | 28.6 µM | 24.8 µM | 36 µM | > 40.3 µM | 36.2 µM | 62.7 µM | 52.4 µM | 29.8 µM | 38.1 µM | – | –
10 | COc1cccc(-c2cc(=O)c3cc(OC)c(OC)cc3[nH]2)c1 | – | – | > 100 µM | > 100 µM | > 100 µM | > 100 µM | > 100 µM | > 100 µM | > 100 µM | > 100 µM | > 100 µM | – | > 100 µM | > 100 µM | > 100 µM | – | > 100 µM | – | 33.5 µM
11 | COc1c(Cl)c2c(c(OC)c1OC)-c1ccc(OC)c(=O)c(Cl)c1C(NC(C)=O)CC2 (stereo not drawn) | 0.413 µM | 7.87 µM | 10.3 µM | 0.647 µM | – | – | > 100 µM | 0.378 µM | 44.6 µM | 2.38 µM | > 100 µM | > 100 µM | 1.15 µM | > 100 µM | 2.77 µM | – | 0.453 µM | – | –
12 | COC(=O)c1ccc(OCc2ccc3nc(OC)c(OC)nc3c2)cc1 | – | > 100 µM | > 100 µM | > 100 µM | > 100 µM | – | > 100 µM | > 100 µM | – | > 100 µM | > 100 µM | > 100 µM | > 100 µM | > 100 µM | > 100 µM | > 100 µM | > 100 µM | – | –
13 | OC12c3ccccc3C1(N1CCOCC1)CCCCC21OCCCO1 (stereo not drawn) | > 100 µM | > 100 µM | > 100 µM | > 100 µM | > 100 µM | > 100 µM | > 100 µM | > 100 µM | > 100 µM | > 100 µM | > 100 µM | > 100 µM | > 100 µM | – | > 100 µM | > 100 µM | – | – | –
14 | O=C1CCCCC1CN1CCCC1 (stereo not drawn) | > 100 µM | > 100 µM | > 100 µM | > 100 µM | > 100 µM | > 100 µM | > 100 µM | > 100 µM | – | > 100 µM | > 100 µM | > 100 µM | > 100 µM | > 100 µM | – | > 100 µM | > 100 µM | – | –
